Results: patent US11000033B2, “Ketone or oxime compound, and herbicide” (NISSAN CHEMICAL CORPORATION, priority 2014, dated 2021)

Assays:
Assay type in all cases: in vivo
beet = assay: Test Example 5: effect on crop by foliage application, plastic box (symbol f); conditions: 320 g/ha, 3 weeks after application
In short: (§1)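 In a plastic box 7 cm deep filled with sterilized diluvial soil, seeds of crops and weeds such as Digitaria ciliaris, Avena fatua and Amaranthus retroflexus are sown in spots and covered with about 1.5 cm of soil before greenhouse growth at 25–30° C.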

Digitaria ciliaris = assay: Test Example 5: herbicidal effect by foliage application, plastic box (symbol F); conditions: 320 g/ha, 3 weeks after application
In short: (§2)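 Post-emergence spray; diluvial soil (sterilized), ~1.5 cm seed cover; greenhouse 25–30° C; 14-day-old plants; water-diluted emulsion at predetermined dose; visual score at 3 wk post-treatment.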

soybean = assay: Test Example 5: effect on crop by foliage application, plastic box (symbol d); conditions: 320 g/ha, 3 weeks after application
In short: as §1

wheat [1] = assay: Test Example 4: effect on crop by soil treatment (symbol e); conditions: for Effect on crop grade, e: wheat / e (wheat) effect on crop grade: application herbicide amount 320 g/ha
In short: (§3)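 Plants are raised in a greenhouse (25° C. to 30° C.) from spot-sown seed, which sits under about 1.5 cm of sterilized diluvial soil in a box shared with weed species.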

Stellaria media = assay: Test Example 4: herbicidal effect by soil treatment (symbol P); conditions: for Herbicidal effect grade, P: Stellaria media / P (Stellaria media) herbicidal effect grade: application herbicide amount 320 g/ha
In short: (§4)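 Seeds were sown in sterilized diluvial soil, covered with about 1.5 cm of soil, and the soil surface was sprayed with a water-diluted emulsion of the compound at a predetermined rate. Plants grew in a greenhouse at 25° C. to 30° C.; effects were scored visually 3 weeks after application.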

[2] = tested on: directly sowed rice plant; assay: Test Example 3: effect on crop by foliage application, Wagner pot (symbol b); conditions: application herbicide amount 320 g/ha
In short: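 Wagner pot (1/10000 are), alluvial soil, submerged 0.1–0.5 cm; sown E. crus-galli var. crus-galli, L. chinensis, C. difformis, rice; greenhouse 25–30 °C.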

rice = assay: Test Example 4: effect on crop by soil treatment (symbol b); conditions: for Effect on crop grade, b: directly sowed rice plant / b (directly sowed rice plant) effect on crop grade: application herbicide amount 320 g/ha
In short: as §3

Abutilon theophrasti = assay: Test Example 4: herbicidal effect by soil treatment (symbol M); conditions: for Herbicidal effect grade, M: Abutilon theophrasti / M (Abutilon theophrasti) herbicidal effect grade: application herbicide amount 320 g/ha
In short: as §4

Alopecurus myosuroides = assay: Test Example 5: herbicidal effect by foliage application, plastic box (symbol J); conditions: 320 g/ha, 3 weeks after application
In short: as §2

Apera spica-venti = assay: Test Example 4: herbicidal effect by soil treatment (symbol L); conditions: for Herbicidal effect grade, L: Apera spica-venti / L (Apera spica-venti) herbicidal effect grade: application herbicide amount 320 g/ha
In short: as §4

Setaria viridis = assay: Test Example 4: herbicidal effect by soil treatment (symbol G); conditions: for Herbicidal effect grade, G: Setaria viridis / G (Setaria viridis) herbicidal effect grade: application herbicide amount 320 g/ha
In short: as §4

wheat [3] = assay: Test Example 5: effect on crop by foliage application, plastic box (symbol e); conditions: 320 g/ha, 3 weeks after application
In short: as §1

Amaranthus retroflexus = assay: Test Example 4: herbicidal effect by soil treatment (symbol N); conditions: for Herbicidal effect grade, N: Amaranthus retroflexus / N (Amaranthus retroflexus) herbicidal effect grade: application herbicide amount 320 g/ha
In short: as §4

Cyperus difformis = assay: Test Example 3: herbicidal effect by foliage application, Wagner pot (symbol E); conditions: application herbicide amount 320 g/ha
In short: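 Steps: fill pot with alluvial soil; add water to 0.1–0.5 cm depth; sow weed and rice seed; grow 14 days at 25–30 °C; spray diluted emulsion over the leaves; rate effect after 3 weeks.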

Avena fatua = assay: Test Example 5: herbicidal effect by foliage application, plastic box (symbol I); conditions: 320 g/ha, 3 weeks after application
In short: as §2

With `CC(=O)CC1CC(O)=C(c2c(C)cc(-c3ncccn3)cc2C)C1=O` (stereo not drawn) [7-017] the “f: beet, effect on crop (criteria of Test Example 1)” value (beet) was 0 (Herbicidal ratio of 5% or lower (almost no effect)), the “F: Digitaria ciliaris, herbicidal effect (criteria of Test Example 1)” value (Digitaria ciliaris) was 5 (Herbicidal ratio of 90% or more (almost completely withered)) and the “d: soybean, effect on crop (criteria of Test Example 1)” value (soybean) was 0 (Herbicidal ratio of 5% or lower (almost no effect)). The “Effect on crop grade, e: wheat” value (wheat [1]) was 0 (Herbicidal ratio of 5% or lower (almost no effect)), the “Herbicidal effect grade, P: Stellaria media” value (Stellaria media) was 0 (Herbicidal ratio of 5% or lower (almost no effect)) and the “effect on crop b (directly sowed rice plant), grade 0-5” value (shortened to “effect on crop b”) [2] was 5 (Herbicidal ratio of 90% or more (almost completely withered)). The “Effect on crop grade, b: directly sowed rice plant” value (rice) was 0 (Herbicidal ratio of 5% or lower (almost no effect)), the “Herbicidal effect grade, M: Abutilon theophrasti” value (Abutilon theophrasti) was 0 (Herbicidal ratio of 5% or lower (almost no effect)) and the “J: Alopecurus myosuroides, herbicidal effect (criteria of Test Example 1)” value (Alopecurus myosuroides) was 2 (Herbicidal ratio of 20% or higher and lower than 40%). For the same compound, the “Herbicidal effect grade, L: Apera spica-venti” value (Apera spica-venti) was 0 (Herbicidal ratio of 5% or lower (almost no effect)), the “Herbicidal effect grade, G: Setaria viridis” value (Setaria viridis) was 0 (Herbicidal ratio of 5% or lower (almost no effect)) and the “e: wheat, effect on crop (criteria of Test Example 1)” value (wheat [3]) was 0 (Herbicidal ratio of 5% or lower (almost no effect)). For the same compound, the “Herbicidal effect grade, N: Amaranthus retroflexus” value (Amaranthus retroflexus) was 0 (Herbicidal ratio of 5% or lower (almost no effect)), the “herbicidal effect on E, grade 0-5” value (Cyperus difformis) was 4 (Herbicidal ratio of 70% or higher and lower than 90%) and the “I: Avena fatua, herbicidal effect (criteria of Test Example 1)” value (Avena fatua) was 0 (Herbicidal ratio of 5% or lower (almost no effect)).

In the case of `CON=C(C)CC1CC(OC(=O)COc2cccc(C#N)c2)=C(c2c(C)cc(C)cc2C)C1=O` (stereo not drawn) [1-074], the “f: beet, effect on crop (criteria 0-5)” value (beet) is reported as 0 (Herbicidal ratio of 5% or lower (almost no effect)), the “F: Digitaria ciliaris, herbicidal effect (criteria 0-5)” value (Digitaria ciliaris) is reported as 5 (Herbicidal ratio of 90% or more (almost completely withered)) and the “d: soybean, effect on crop (criteria 0-5)” value (soybean) is reported as 4 (Herbicidal ratio of 70% or higher and lower than 90%). The “e (wheat) effect on crop grade” value (wheat [1]) was 4 (Herbicidal ratio of 70% or higher and lower than 90%), the “P (Stellaria media) herbicidal effect grade” value (Stellaria media) was 0 (Herbicidal ratio of 5% or lower (almost no effect)) and the “effect on crop b” value [2] was 5 (Herbicidal ratio of 90% or more (almost completely withered)). For the same compound, the “b (directly sowed rice plant) effect on crop grade” value (rice) was 5 (Herbicidal ratio of 90% or more (almost completely withered)), the “M (Abutilon theophrasti) herbicidal effect grade” value (Abutilon theophrasti) was 5 (Herbicidal ratio of 90% or more (almost completely withered)) and the “J: Alopecurus myosuroides, herbicidal effect (criteria 0-5)” value (Alopecurus myosuroides) was 5 (Herbicidal ratio of 90% or more (almost completely withered)). The “L (Apera spica-venti) herbicidal effect grade” value (Apera spica-venti) was 5 (Herbicidal ratio of 90% or more (almost completely withered)), the “G (Setaria viridis) herbicidal effect grade” value (Setaria viridis) was 5 (Herbicidal ratio of 90% or more (almost completely withered)) and the “e: wheat, effect on crop (criteria 0-5)” value (wheat [3]) was 5 (Herbicidal ratio of 90% or more (almost completely withered)). For the same compound, the “N (Amaranthus retroflexus) herbicidal effect grade” value (Amaranthus retroflexus) was 5 (Herbicidal ratio of 90% or more (almost completely withered)), the “herbicidal effect on E, grade 0-5” value (Cyperus difformis) was 5 (Herbicidal ratio of 90% or more (almost completely withered)) and the “I: Avena fatua, herbicidal effect (criteria 0-5)” value (Avena fatua) was 5 (Herbicidal ratio of 90% or more (almost completely withered)).

In the case of `CC(=O)CC1CC(O)=C(c2c(C)cc(-c3ccc(OC(F)(F)F)cc3)cc2C)C1=O` (stereo not drawn) [7-016], the “f: beet, effect on crop (criteria of Test Example 1)” value (beet) is reported as 0 (Herbicidal ratio of 5% or lower (almost no effect)), the “F: Digitaria ciliaris, herbicidal effect (criteria of Test Example 1)” value (Digitaria ciliaris) is reported as 0 (Herbicidal ratio of 5% or lower (almost no effect)) and the “d: soybean, effect on crop (criteria of Test Example 1)” value (soybean) is reported as 0 (Herbicidal ratio of 5% or lower (almost no effect)). For the same compound, the “Effect on crop grade, e: wheat” value (wheat [1]) was 0 (Herbicidal ratio of 5% or lower (almost no effect)), the “Herbicidal effect grade, P: Stellaria media” value (Stellaria media) was 0 (Herbicidal ratio of 5% or lower (almost no effect)) and the “effect on crop b” value [2] was 0 (Herbicidal ratio of 5% or lower (almost no effect)). The “Effect on crop grade, b: directly sowed rice plant” value (rice) was 0 (Herbicidal ratio of 5% or lower (almost no effect)), the “Herbicidal effect grade, M: Abutilon theophrasti” value (Abutilon theophrasti) was 0 (Herbicidal ratio of 5% or lower (almost no effect)) and the “J: Alopecurus myosuroides, herbicidal effect (criteria of Test Example 1)” value (Alopecurus myosuroides) was 0 (Herbicidal ratio of 5% or lower (almost no effect)). For the same compound, the “Herbicidal effect grade, L: Apera spica-venti” value (Apera spica-venti) was 0 (Herbicidal ratio of 5% or lower (almost no effect)), the “Herbicidal effect grade, G: Setaria viridis” value (Setaria viridis) was 2 (Herbicidal ratio of 20% or higher and lower than 40%) and the “e: wheat, effect on crop (criteria of Test Example 1)” value (wheat [3]) was 0 (Herbicidal ratio of 5% or lower (almost no effect)). For the same compound, the “Herbicidal effect grade, N: Amaranthus retroflexus” value (Amaranthus retroflexus) was 0 (Herbicidal ratio of 5% or lower (almost no effect)), the “herbicidal effect on E, grade 0-5” value (Cyperus difformis) was 0 (Herbicidal ratio of 5% or lower (almost no effect)) and the “I: Avena fatua, herbicidal effect (criteria of Test Example 1)” value (Avena fatua) was 0 (Herbicidal ratio of 5% or lower (almost no effect)).

In the case of `CON=C(C)CC1CC(OC(=O)COc2ccccc2[N+](=O)[O-])=C(c2c(C)cc(C)cc2C)C1=O` (stereo not drawn) [1-071], the “f: beet, effect on crop grade” value (beet) is reported as 0 (Herbicidal ratio of 5% or lower (almost no effect)), the “F: Digitaria ciliaris, herbicidal effect grade” value (Digitaria ciliaris) is reported as 5 (Herbicidal ratio of 90% or more (almost completely withered)) and the “d: soybean, effect on crop grade” value (soybean) is reported as 4 (Herbicidal ratio of 70% or higher and lower than 90%). For the same compound, the “e (wheat) effect on crop grade” value (wheat [1]) was 4 (Herbicidal ratio of 70% or higher and lower than 90%), the “P (Stellaria media) herbicidal effect grade” value (Stellaria media) was 0 (Herbicidal ratio of 5% or lower (almost no effect)) and the “effect on crop b” value [2] was 5 (Herbicidal ratio of 90% or more (almost completely withered)). For the same compound, the “b (directly sowed rice plant) effect on crop grade” value (rice) was 5 (Herbicidal ratio of 90% or more (almost completely withered)), the “M (Abutilon theophrasti) herbicidal effect grade” value (Abutilon theophrasti) was 4 (Herbicidal ratio of 70% or higher and lower than 90%) and the “J: Alopecurus myosuroides, herbicidal effect grade” value (Alopecurus myosuroides) was 5 (Herbicidal ratio of 90% or more (almost completely withered)). For the same compound, the “L (Apera spica-venti) herbicidal effect grade” value (Apera spica-venti) was 5 (Herbicidal ratio of 90% or more (almost completely withered)), the “G (Setaria viridis) herbicidal effect grade” value (Setaria viridis) was 5 (Herbicidal ratio of 90% or more (almost completely withered)) and the “e: wheat, effect on crop grade” value (wheat [3]) was 5 (Herbicidal ratio of 90% or more (almost completely withered)). The “N (Amaranthus retroflexus) herbicidal effect grade” value (Amaranthus retroflexus) was 4 (Herbicidal ratio of 70% or higher and lower than 90%), the “herbicidal effect on E, grade 0-5” value (Cyperus difformis) was 5 (Herbicidal ratio of 90% or more (almost completely withered)) and the “I: Avena fatua, herbicidal effect grade” value (Avena fatua) was 5 (Herbicidal ratio of 90% or more (almost completely withered)).

`C=CC(CC1CC(O)=C(c2c(C)cc(C)cc2C)C1=O)=NOC` (stereo not drawn) [1-086] was tested, and the “f: beet, effect on crop (criteria 0-5)” value (beet) was 0 (Herbicidal ratio of 5% or lower (almost no effect)), the “F: Digitaria ciliaris, herbicidal effect (criteria 0-5)” value (Digitaria ciliaris) was 0 (Herbicidal ratio of 5% or lower (almost no effect)) and the “d: soybean, effect on crop (criteria 0-5)” value (soybean) was 0 (Herbicidal ratio of 5% or lower (almost no effect)). The “e: wheat, effect grade on crop” value (wheat [1]; 320 g/ha) was 0 (Herbicidal ratio of 5% or lower (almost no effect)), the “P: Stellaria media, herbicidal effect grade” value (Stellaria media; 320 g/ha) was 0 (Herbicidal ratio of 5% or lower (almost no effect)) and the “effect on crop b” value [2] was 5 (Herbicidal ratio of 90% or more (almost completely withered)). The “b: directly sowed rice plant, effect grade on crop” value (rice; 320 g/ha) was 5 (Herbicidal ratio of 90% or more (almost completely withered)), the “M: Abutilon theophrasti, herbicidal effect grade” value (Abutilon theophrasti; 320 g/ha) was 0 (Herbicidal ratio of 5% or lower (almost no effect)) and the “J: Alopecurus myosuroides, herbicidal effect (criteria 0-5)” value (Alopecurus myosuroides) was 4 (Herbicidal ratio of 70% or higher and lower than 90%). For the same compound, the “L: Apera spica-venti, herbicidal effect grade” value (Apera spica-venti; 320 g/ha) was 3 (Herbicidal ratio of 40% or higher and lower than 70%), the “G: Setaria viridis, herbicidal effect grade” value (Setaria viridis; 320 g/ha) was 4 (Herbicidal ratio of 70% or higher and lower than 90%) and the “e: wheat, effect on crop (criteria 0-5)” value (wheat [3]) was 0 (Herbicidal ratio of 5% or lower (almost no effect)). The “N: Amaranthus retroflexus, herbicidal effect grade” value (Amaranthus retroflexus; 320 g/ha) was 0 (Herbicidal ratio of 5% or lower (almost no effect)), the “herbicidal effect on E, grade 0-5” value (Cyperus difformis) was 4 (Herbicidal ratio of 70% or higher and lower than 90%) and the “I: Avena fatua, herbicidal effect (criteria 0-5)” value (Avena fatua) was 4 (Herbicidal ratio of 70% or higher and lower than 90%).
